Literature values, collected in patent US20080187561A1, “Enteric Coated Didanosine Compositions Having A Subcoat” (priority 2007, published 2008).

Conditions: pH<3, 37° C., acidic solution

For `OC[C@@H]1CC[C@H](n2cnc3c(O)ncnc32)O1` [didanosine, 2′,3′-dideoxyinosine], which “Time in which 10% of didanosine decomposes to hypoxanthine” value is on record?
Its value is “less than 2 minutes”.
